Measured values taken from PMC8147656 (Journal of Personalized Medicine, 2021).
Like-named read-outs stand apart in the source and are kept apart here.

Key:
[1] = set-up: method as in PMID 11117653; details: healthy volunteers; cited from earlier work
Mrp2 = system: Mrp2; set-up: method as in PMID 18799822; details: cited from earlier work
[2] = cited from earlier work
CYP2C9 [3] = details: human liver microsomes, CYP selective inhibitors; cited from earlier work
[4] = Population observational study of patients with T2D (GoDARTS): severe gliclazide-induced hypoglycemia; format: in vivo, human; details: gliclazide-treated cohort with genetic data (48 cases and 288 controls); OR (95% CI), p = 0.187
Source text: We used the Scottish Ambulance Service data and the Accident and Emergency diagnosis records to identify severe cases of hypoglycemia in Tayside and Fife, Scotland. […] Logistic regression was used to analyze the effect of the CYP2C19 variants and co-treatment with PPIs on gliclazide-induced hypoglycemia. All analyses were adjusted for known clinical predictors of hypoglycemia, including age, sex, age of T2D diagnosis, body mass index, creatinine and HbA1c [53], as well as the overall number of medications used as a proxy for comorbidities [54]. The CYP2C19 phenotypes were assigned based on diplotypes in the same manner as in healthy volunteers. The analyses were performed using SAS 9.3 (SAS Institute Inc., Cary, NC, USA). Statistical significance was set at p < 0.05.

[5] = single oral gliclazide, healthy Chinese volunteers, cited from earlier work
[6] = gliclazide; ref Proks et al., 2018 [46]; cited from earlier work
OATP1B1 = details: cited from earlier work
CYP2C19 [7] = details: cited from earlier work
[8] = Clinical trial on omeprazole-gliclazide interaction in healthy volunteers, CYP2C19 NM/RM/UM; format: in vivo, human; details: for AUC(0-t): male, human, serum, oral, 40 mg, gliclazide 40 mg tablet, current trial, geometric mean (95% CI), read-out: AUC0–24, observed
Source text: Fifteen healthy volunteers (men, age 18–30 years, non-smokers) with CYP2C19 NM/RM/UM status were recruited. The exclusion criteria included: a medical history of hepatic, renal, gastrointestinal or hematologic disease or any acute or chronic disease; drug allergy to sulfonylureas or PPIs; history of drug abuse; abnormalities in physical examination, ECG or routine clinical laboratory tests (including fasting blood glucose concentration); medication use during the 14 days prior to and during the study period; grapefruit, grapefruit juice, alcohol, beverages or food containing methylxanthines use during the 72 h prior to and during the study period.
On day 5 of each admission period, after an overnight fast, the volunteers were admitted to the hospital. […] Drugs were given in a sitting position, at 8 AM. Volunteers were not permitted to lie down or sleep for the next 4 h after taking drugs, as well as to perform any strenuous activities for the next 24 h. In order to counteract the blood glucose-lowering action of gliclazide, volunteers received standardized meals: breakfast at 30 min after gliclazide intake, snacks after 2 and 3 h, a lunch (warm meal) after 4 h, a snack after 6 h, dinner after 8 h, and additional snacks at 10 h and 12 h after drugs administration. No other food and drink (with the exception of water) were allowed. For safety reasons, the volunteers were under direct medical supervision throughout the 24 h following drugs administration. Fast-acting carbohydrates, glucose solution for i.v. use and glucagon for intramuscular use were available in case of hypoglycemia.
Venous blood samples were collected on day 5 of each admission period before dosing (0 h) and 0.5, 1, 1.5, 2, 2.5, 3, 3.5, 4, 4.5, 5, 6, 8, 10, 12, 15 and 24 h after gliclazide administration. Serum samples for gliclazide quantification were separated within 30 min following each blood sample collection and stored at −80 °C until the analysis.
Serum gliclazide concentrations were quantified using a validated stable isotope dilution liquid chromatography-tandem mass spectrometry (LC-MS/MS) method. In brief, a total of 10 µL serum was added to 90 µL acetonitrile containing 100 ng/mL of d4-gliclazide and 0.1% formic acid. […] Gliclazide was quantitated by the triple quadrupole mass spectrometer in ESI positive ion mode. […] The limit of quantification was 3.1 ng/mL.
PK parameters were calculated in a noncompartmental analysis using PKSolver, a program for PK data analysis in Microsoft Excel. The area under the plasma gliclazide concentration-time curve (AUC) up to the last concentration measured (AUC0–t) was determined using the linear trapezoidal rule.
The main evaluated outcome was systemic exposure to gliclazide, expressed as AUC0–t. The geometric mean was calculated for AUC0–24. […]

[9] = cited from earlier work; remark: listed apart in the source
[10] = In vitro dissolution testing under biorelevant media-change conditions; format: physicochemical; details: conditions without vs with omeprazole (gastric pH)
Protocol: In order to estimate the drug release rate in vivo and concomitant absorption profile, dissolution tests were performed under biorelevant media-change conditions (Table 3), using USP apparatus 2 (Erweka DT 800, Heusenstamm, Germany) at 37 ± 0.5 °C and rotational speed of 100 rpm. Withdrawn aliquots were filtered, diluted and analysed for gliclazide by UV spectrophotometry (UV-1700 spectrophotometer, Shimadzu, Japan). The absorbance obtained at 226 nm was corrected by subtracting the absorbance obtained at 290 nm, according to British Pharmacopeia. All measurements were performed in triplicate. The pH values and tablet residence time in each medium were selected based on the proposed biorelevant dissolution test conditions. […] Medium pH 6.0 was used to simulate the fed state luminal conditions in the ascending colon.

CYP2C19 [11] = test: CYP2C19-mediated metabolism (fm, intrinsic clearance); format: in vitro ADME, human
Protocol: (§1) Absorption was described by a first-order absorption model in line with previous studies. The steady-state volume of distribution (Vss) value was based on previous models.
(§2) The full PBPK model was developed for gliclazide using a middle-out approach. The Vss was predicted by Simcyp Rodgers et al. + ion membrane permeability model. […] The intrinsic clearances per pmol of CYP enzymes were calculated using total intrinsic clearance measured in vitro in human liver microsomes, and fm values obtained from in vivo data. […] Considering the difference in abundance and activity of the transporter between liver and the transfected cell line, a relative activity factor (RAF) was optimized to fit the observed clinical data. Liver passive diffusion clearance (ClPD) of gliclazide was estimated based on experimental logD7.4 value.

CYP2C9 [12] = test: CYP2C9-mediated metabolism (fm, intrinsic clearance); format: in vitro ADME, human; details: gliclazide; calculated from microsomal total intrinsic clearance [10], CYP abundances and fm [36]
Protocol: as §2

[13] = omeprazole, cited from earlier work
CYP3A4 [14] = test: CYP3A4-mediated metabolism (fm, intrinsic clearance); format: in vitro ADME, human; details: omeprazole; retrograde calculated from observed Clpo after 20 mg single dose, fa*fg = 1
Source text: as §1

CYP2C19 [15] = system: CYP2C19; set-up: method as in Ogilvie et al., 2011 [27]; details: omeprazole; ref Ogilvie et al., 2011 [27]; cited from earlier work
CYP3A4 [16] = system: CYP3A4; set-up: method as in PMID 24739523; details: omeprazole; average value for CYP2C19 EM/RM/UM phenotypes; cited from earlier work
CYP2C19 [17] = details: previous study based on omeprazole enantiomers; cited from earlier work
[18] = set-up: method as in Hassan-Alin et al., 2005 [30]; details: geometric mean (95% CI), ref Hassan-Alin et al., 2005 [30], cited from earlier work; for Cmax: read-out: Cmax, observed
[19] = gliclazide model input, ref Grbic et al., 2011 [40]
[20] = gliclazide, ref Chen et al., 2018 [37]
[21] = gliclazide 30 mg MR tablet, single oral, geometric mean (95% CI)
[22] = gliclazide 80 mg IR tablet, single oral, geometric mean (95% CI)
[23] = gliclazide i.v. infusion 30 mg, geometric mean (95% CI)
[24] = omeprazole model input, ref Ogilvie et al., 2011 [27]
[25] = first-order absorption model, ref Ogilvie et al., 2011 [27]

## COc1ccnc(C[S+]([O-])c2nc3ccc(OC(F)F)cc3[nH]2)c1OC (stereo not drawn) [pantoprazole]
[1]
  Effect of pantoprazole on glibenclamide PK: no effect

## Cc1ccc(S(=O)(=O)NC(=O)NN2CC3CCCC3C2)cc1 (stereo not drawn) [gliclazide]
Mrp2
  Substrate for the efflux Mrp2 transporter in rats: substrate
[2]; gliclazide model input, ref El-Sabawi, et al., 2014 [45]
  Log P: 2.04
[2]; [19]
  Compound type: Ampholyte
  pKa (first value): 2.9
  pKa (second value): 5.8
CYP2C9 [3]
  Contribution of CYP2C9 to gliclazide metabolism: at least 65%
[4]
  Odds ratio of hypoglycemia for the loss-of-function CYP2C19*2 allele: 0.50 (0.18–1.40)
[5]; ref 11
  Observed gliclazide AUC, fold higher in CYP2C19 PM compared to NM: 3.4 fold
[5]; ref 12
  Observed gliclazide AUC, fold higher in CYP2C19 PM compared to NM: 5.1 fold
[6]
  fu (fraction unbound): 0.15
OATP1B1
  Substrate of hepatic OATP1B1 transporter: substrate
OATP1B1; [20]
  Km: 30.2 µM
  OATP1B1 Jmax: 12.9 pmol/min/10^6 cells
CYP2C19 [7]; human liver microsomes, CYP selective inhibitors
  Contribution of CYP2C19 to gliclazide metabolism: ≤ 35%
[8]; 40 mg gliclazide with placebo or 20 mg omeprazole, healthy volunteers
  Hypoglycemia or other adverse effects in the trial: no cases of hypoglycemia or any other adverse effect
[8]; 40 mg gliclazide, 20 mg omeprazole 5 days, 14 healthy volunteers NM/RM/UM, ratio (90% CI)
  Geometric mean ratio of gliclazide AUC0–24, omeprazole phase/placebo phase: 1.13 (0.86–1.48)
[8]; omeprazole phase
  AUC(0-t): 3730 ng·h/mL
[8]; placebo phase
  AUC(0-t): 3290 ng·h/mL
[9]; [21]
  AUC0–72, observed: 14.4 (12.4–16.8) µgh/mL
  AUC0–∞, observed: 15.6 (13.5–18.1) µgh/mL
  Cmax, observed: 0.71 (0.62–0.82) µg/mL
[9]; gliclazide 30 mg MR tablet, single oral, median (minimum–maximum)
  tmax, observed: 7 (4–10) h
[9]; [22]
  AUC0–48, observed: 45.5 (38.9–53.3) µgh/mL
  AUC0–∞, observed: 50.9 (42.8–60.5) µgh/mL
  Cmax, observed: 3.51 (3.24–3.80) µg/mL
  tmax, observed: 3.66 (3.10–4.33) h
[9]; [23]
  AUC0–72, observed: 15.5 (13.0–18.5) µgh/mL
  AUC0–∞, observed: 17.2 (14.5–20.3) µgh/mL
  Cmax, observed: 1.39 (1.16–1.67) µg/mL
[9]; gliclazide
  Vss observed in humans in vivo: 0.19 to 0.46 L/kg
[10]
  Initial gliclazide release rate between media pH 1.6 and pH 3.0: no difference
CYP2C19 [11]; gliclazide, calculated from microsomal total intrinsic clearance [10], CYP abundances and fm [36]
  Clint CYP2C19: 0.273 µL/min/pmol
CYP2C9 [12]
  Clint CYP2C9: 0.004 µL/min/pmol

## COc1ccc2[nH]c([S+]([O-])Cc3ncc(C)c(OC)c3C)nc2c1 (stereo not drawn) [omeprazole]
[2]; [24]
  Compound type: Ampholyte
  pKa (first value): 4.4
[13]; [25]
  fa (fraction absorbed): 1
  ka (absorption rate constant): 6 h⁻¹
[13]; minimal PBPK model, ref Deng 2016 [29], Wu et al., 2014 [28]
  Vss: 0.15 L/kg
[13]; ref Wu et al., 2014 [28], Feng et al., 2015 [42]
  ClR (renal clearance): 0.037 L/h
CYP3A4 [14]
  Clint CYP3A4: 0.39 µL/min/pmol
CYP2C19 [15]
  Ki: 5 µM
CYP3A4 [16]
  fm CYP3A4: 14%
CYP2C19 [17]
  Predicted lowest level of active CYP2C19, previous study: 14%
[18]; omeprazole 20 mg day 1
  AUC0–∞, observed: 1.04 (0.64–1.72) µM × h
  Cmax: 1040 nM
[18]; omeprazole 20 mg day 5
  AUC0–∞, observed: 1.63 (0.96–2.78) µM × h
  Cmax: 1430 nM
[18]; omeprazole 40 mg day 1
  AUC0–∞, observed: 2.44 (1.53–3.91) µM × h
  Cmax: 2320 nM
[18]; omeprazole 40 mg day 5
  AUC0–∞, observed: 5.79 (3.60–9.33) µM × h
  Cmax: 3870 nM
CYP2C19 [7]; omeprazole, average value for CYP2C19 EM/RM/UM phenotypes
  fm CYP2C19: 86%
CYP2C19 [11]; omeprazole, retrograde calculated from observed Clpo after 20 mg single dose, fa*fg = 1
  Clint CYP2C19: 75.1 µL/min/pmol
